Data as given in PubChem BioAssay AID1963442 (Molecular Pharmacology Branch, DTP, NCI, 2024).

Test system: MPNST complex spheroid with HUVEC/MSC, growth, % test/control
Test: Anticancer human tumor MPNST cell line growth inhibition [Asc];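 note: compounds left on spheroids for seven days before reading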
Details: for IC50: curve of first compound; for viability, T/C: stronger effect = lower value
Experimental: Multicellular complex tumor spheroid response to apoptosis pathway targeting inhibitors Alrizomadlin, Pelcitoclax, and Dasminapant in combination with a variety of drugs and investigational agents in selected tumor cell lines
The MDM2 inhibitor alrizomadlin, the Bcl-2/Bcl-xL inhibitor pelcitoclax, and the IAPs inhibitor dasminapant were evaluated both individually and in combination with standard of care and investigational anticancer small molecules within a complex spheroid model of solid tumors. . Complex spheroids include a stromal component modeled by human endothelial cells (HUVEC) and fibroblasts modeled by human mesenchymal stem cells (MSCs). The concentration ranges selected for each drug and investigational agent were based upon clinically achievable concentrations if the clinical Cmax of the agent was known.
Compounds. The drugs and investigational agents: alrizomadlin (APG-115; NSC831270), pelcitoclax (APG-1252; NSC835773), dasminapant (APG-1387;NSC834197), TAK-243 (NSC785004), copanlisib (NSC809693), olaparib (NSC753686), talazoparib (NSC767125), cobimetinib (NSC 768068), eltanexor (KPT-8602, NSC 794443), abemaciclib (NSC 768073), sotorasib (NSC818433), adagrasib (NSC 831453), MRTX-1133 (NSC 836407), Iadademestat (ORY1001, NSC 806812), and RMC-4630 (NSC839698), were obtained from the NCI Developmental Therapeutics Program Chemical Repository. The FDA-approved anticancer drug set is available from the Developmental Therapeutics Program at https://dtp.cancer.gov/organization/dscb/obtaining/available plates.htm. […] The stock solutions were prepared in dimethyl sulfoxide (DMSO, Sigma-Aldrich, St. Louis, MO, cat. D2650) at 800-fold the tested concentration and stored at -70 degrees C prior to their use. All drugs and investigational agents were tested over a range starting from a high concentration at or near the clinical Cmax and decreasing in half-log increments. If the clinical Cmax for an agent had not been determined, the highest concentration tested was 10 microM.
The patient-derived cancer (PDC) cell lines include five colon adenocarcinomas: 186277-243-T-J2-PDC, 616215-338-R-J1-PDC, 439559-082-T-J2-PDC, 463943-066-T-J2-PDC, and 519858-162-T-J1-PDC; three pancreatic carcinomas: 323965-272-R-J2-PDC, 521955-158-R6-J3-PDC, and 521955-158-R2-J5-PDC; two uterine sarcomas: 327498-152-R-J2-PDC and 993429-296-R-J1-PDC; two rhabdomyosarcomas: 755483-174-R-J1-PDC and 772245-204-R-J1-PDC; two soft tissue sarcomas: 126254-015-R-J1-PDC and 494315-158-R-J1-PDC; two malignant fibrous histiocytomas: 317291-083-R-J1-PDC and 596521-263-R-J1-PDC; two breast carcinomas: 171881-019-R-J1-PDC and 885512-296-R-J2-PDC; and one ovarian carcinoma: 6556581-035-R-J-PDC were obtained from the NCI PDMR, (https://pdmr.cancer.gov). The established cell lines HSSY-2 synovial sarcoma (RRID:CVCL 8719), SYO-1 synovial sarcoma (RRID:CVCL_7146), MPNST malignant peripheral neural sheath tumor were obtained from the Sloan Kettering Institute. The following established cell lines were purchased from the American Type Culture Collection (ATCC, Manassas, VA), Sor the received from the NCI repository:, PANC-1 pancreatic carcinoma (CRL-1469, RRID:CVCL_0480), OVCAR-5 ovarian carcinoma (RRID:CVCL_1628), OVCAR-8 ovarian carcinoma (RRID:CVCL_1629), , MCF-7 breast carcinoma (CRL-12584, RRID:CVCL_0031), MDA-MB-231 breast carcinoma (CRL-12532, RRID:CVCL_0062), NCI-H1876 small cell lung carcinoma (CRL-5902, RRID:CVCL_1503), NCI-H510A small cell lung carcinoma (HTB-184, RRID:CVCL_1565), NCI-H1417 (CRL-5869, RRID:CVCL_1469), and NCI-H196 small cell lung carcinoma (CRL-5823, RRID:CVCL_1509). Dr. Peter Houghton (Greehey Children's Cancer Research Institute, University of Texas Health Science Center, San Antonio, TX) provided Rh-18 rhabdomyosarcoma (RRID:CVCL_1659). Pooled donor human umbilical vein endothelial cells (HUVEC, Lonza, cat. CC-2519) and human mesenchymal stem cells (hMSC, Lonza, cat. PT-2501) were purchased from Lonza (Walkersville, MD).
Cell Culture. […]

[1] = second compound 0.03 µM, first compound 0.00316 µM
[2] = second compound 0.03 µM, first compound 0.01 µM
[3] = second compound 0.03 µM, first compound 0.0316 µM
[4] = second compound 0.03 µM, first compound 0.1 µM
[5] = second compound 0.03 µM, first compound 0.316 µM
[6] = second compound 0.03 µM, first compound 1 µM
[7] = second compound 0.0949 µM, first compound 0.00316 µM
[8] = second compound 0.0949 µM, first compound 0.01 µM
[9] = second compound 0.0949 µM, first compound 0.0316 µM
[10] = second compound 0.0949 µM, first compound 0.1 µM
[11] = second compound 0.0949 µM, first compound 0.316 µM
[12] = second compound 0.0949 µM, first compound 1 µM
[13] = second compound 0.3 µM, first compound 0.00316 µM
[14] = second compound 0.3 µM, first compound 0.01 µM
[15] = second compound 0.3 µM, first compound 0.0316 µM
[16] = second compound 0.3 µM, first compound 0.1 µM
[17] = second compound 0.3 µM, first compound 0.316 µM
[18] = second compound 0.3 µM, first compound 1 µM
[19] = second compound 0.949 µM, first compound 0.00316 µM
[20] = second compound 0.949 µM, first compound 0.01 µM
[21] = second compound 0.949 µM, first compound 0.0316 µM
[22] = second compound 0.949 µM, first compound 0.1 µM
[23] = second compound 0.949 µM, first compound 0.316 µM
[24] = second compound 0.949 µM, first compound 1 µM
[25] = second compound 3 µM, first compound 0.00316 µM
[26] = second compound 3 µM, first compound 0.01 µM
[27] = second compound 3 µM, first compound 0.0316 µM
[28] = second compound 3 µM, first compound 0.1 µM
[29] = second compound 3 µM, first compound 0.316 µM
[30] = second compound 3 µM, first compound 1 µM

SMILES	IC50 (second compound 0.03 µM) [nM]	IC50 (second compound 0.0949 µM) [nM]	IC50 (second compound 0.3 µM) [nM]	IC50 (second compound 0.949 µM) [nM]	IC50 (second compound 3 µM) [nM]	viability, T/C [1] [%]	viability, T/C [2] [%]	viability, T/C [3] [%]	viability, T/C [4] [%]	viability, T/C [7] [%]	viability, T/C [8] [%]	viability, T/C [9] [%]	viability, T/C [10] [%]	viability, T/C [13] [%]	viability, T/C [14] [%]	viability, T/C [15] [%]	viability, T/C [16] [%]	viability, T/C [19] [%]	viability, T/C [20] [%]	viability, T/C [21] [%]	other results
CCN1CCN(Cc2ccc(Nc3ncc(F)c(-c4cc(F)c5nc(C)n(C(C)C)c5c4)n3)nc2)CC1 + CCN1C(C(=O)NC23CCC(C(=O)O)(CC2)CC3)C(c2cccc(Cl)c2F)C2(C(=O)Nc3cc(Cl)ccc32)C12CCCCC2	> 1000	> 1000	> 1000	> 1000	> 1000	107	109	88.7	75.3	98.1	111	104	106	113	93.9	87.1	103	105	91.6	92.1	viability, T/C [5]: 64.5%; viability, T/C [6]: 72.6%; viability, T/C [11]: 73.9%; viability, T/C [12]: 77%; viability, T/C [17]: 115%; viability, T/C [18]: 90.1%; viability, T/C [22]: 92.3%; viability, T/C [23]: 90.2%; viability, T/C [24]: 91.4%; viability, T/C [25]: 107%; viability, T/C [26]: 92%; viability, T/C [27]: 91.9%; viability, T/C [28]: 76.5%; viability, T/C [29]: 89.3%; viability, T/C [30]: 85.7%
Cn1ncnc1[C@H]1c2n[nH]c(=O)c3cc(F)cc(c23)N[C@@H]1c1ccc(F)cc1 + CCN1C(C(=O)NC23CCC(C(=O)O)(CC2)CC3)C(c2cccc(Cl)c2F)C2(C(=O)Nc3cc(Cl)ccc32)C12CCCCC2	47.2	> 100	> 100	> 100	> 100	80.2	65.9	54.4	43.4	97.7	95.5	74.9	52.1	88.4	91.7	91.1	57.7	79.8	90.6	81.2	viability, T/C (second compound 0.03 µM, first compound 0.000316 µM): 84.6%; viability, T/C (second compound 0.03 µM, first compound 0.001 µM): 82%; viability, T/C (second compound 0.0949 µM, first compound 0.000316 µM): 106%; viability, T/C (second compound 0.0949 µM, first compound 0.001 µM): 91.9%; viability, T/C (second compound 0.3 µM, first compound 0.000316 µM): 106%; viability, T/C (second compound 0.3 µM, first compound 0.001 µM): 92.9%; viability, T/C (second compound 0.949 µM, first compound 0.000316 µM): 80.2%; viability, T/C (second compound 0.949 µM, first compound 0.001 µM): 109%; viability, T/C [22]: 70.7%; viability, T/C (second compound 3 µM, first compound 0.000316 µM): 97.1%; viability, T/C (second compound 3 µM, first compound 0.001 µM): 94.3%; viability, T/C [25]: 89.8%; viability, T/C [26]: 86.6%; viability, T/C [27]: 73.6%; viability, T/C [28]: 72.7%
O=C(c1ccc(F)c(F)c1Nc1ccc(I)cc1F)N1CC(O)([C@@H]2CCCCN2)C1 + CCN1C(C(=O)NC23CCC(C(=O)O)(CC2)CC3)C(c2cccc(Cl)c2F)C2(C(=O)Nc3cc(Cl)ccc32)C12CCCCC2	467	323	281	247	139	87.4	65	72.2	95.9	95.4	78	87.6	84.9	90.9	76	90.9	91.8	88.9	93.6	82.2	viability, T/C [5]: 65.9%; viability, T/C [6]: 18.9%; viability, T/C [11]: 50.6%; viability, T/C [12]: 18.7%; viability, T/C [17]: 45.7%; viability, T/C [18]: 17.7%; viability, T/C [22]: 81.5%; viability, T/C [23]: 41.4%; viability, T/C [24]: 17.3%; viability, T/C [25]: 77.4%; viability, T/C [26]: 82.9%; viability, T/C [27]: 68.3%; viability, T/C [28]: 58.6%; viability, T/C [29]: 32.1%; viability, T/C [30]: 10.7%
